These results are taken from patent publication US20260217683A1, “PYRIDAZINONE HETEROCYCLIC COMPOUND MYOSIN II INHIBITOR AND USE THEREOF” (Xizang Haisco Pharmaceutical Co., Ltd., priority 2023, published 2026).

Where two headings read alike, the source gives them in different places.

Format in all cases: biochemical
Experiment [1] deals with rabbit skeletal muscle myosin. The experiment is described as follows: Inhibition of hydrolysis of ATP by rabbit skeletal muscle myosin. Here is the method:
The purpose of this test was to evaluate the ability of compounds to inhibit the hydrolysis of ATP by rabbit skeletal muscle myosin. The determination method was as follows:
• Preformed F-actin filaments (#AKF99-B, Cytoskeleton) were diluted to 1 mg/mL with Reaction buffer (25 mM Tris-HCL, pH 7.5+35 mM KCl+0.1 mM EGTA+1 mM MgCl2); • Rabbit myosin (#MYO2-A, Cytoskeleton) was diluted to 0.1 mg/mL with Resuspension buffer (15 mM Tris-HCL, PH7.5+0.2 M KCl+1 mM MgCl2); • ATP (#BSA04-001, Cytoskeleton) was diluted to 3 mM working solution with 15 mM Tris-HCL (PH=7.5);
• adding 13 μL reaction buffer+12 μL F-actin to actin control wells; • adding 10 μL reaction buffer+12 μL F-actin+3 μL myosin II to positive control wells; • adding 10 μL of compound working solution+12 μL of F-actin+3 μL of myosin II to the compound wells; • adding 5 μL of ATP working solution to all test wells to start the reaction, and simultaneously adding a sample to the Pi standard wells according to the instruction (#BK054, Cytoskeleton); • gently mixing and accurately incubating at 37° C. for 60 min; • adding 70 μL of CytoPhos Reagent (#BK054, Cytoskeleton) to each well and incubating for 10 min to stop the reaction.
• the OD value of each well was detected at 650 nm using the endpoint method. The standard curve was fitted according to Pi concentration and OD value, and the Pi concentration of each test well was obtained. Inhibition (%)=(Pi positive control well-Pi test well)/Pi positive control well*100%. The Inhibition %-[…] curve was fitted with Graphpad Prism 8 software, and IC50 was calculated.

The target in a further experiment is T1, cardiac myosin SII (Bos taurus, UniProt Q9BE39).
T1 construct: purchased Cytoskeleton #MYO3-A
T1 sequence (Q9BE39 whole entry): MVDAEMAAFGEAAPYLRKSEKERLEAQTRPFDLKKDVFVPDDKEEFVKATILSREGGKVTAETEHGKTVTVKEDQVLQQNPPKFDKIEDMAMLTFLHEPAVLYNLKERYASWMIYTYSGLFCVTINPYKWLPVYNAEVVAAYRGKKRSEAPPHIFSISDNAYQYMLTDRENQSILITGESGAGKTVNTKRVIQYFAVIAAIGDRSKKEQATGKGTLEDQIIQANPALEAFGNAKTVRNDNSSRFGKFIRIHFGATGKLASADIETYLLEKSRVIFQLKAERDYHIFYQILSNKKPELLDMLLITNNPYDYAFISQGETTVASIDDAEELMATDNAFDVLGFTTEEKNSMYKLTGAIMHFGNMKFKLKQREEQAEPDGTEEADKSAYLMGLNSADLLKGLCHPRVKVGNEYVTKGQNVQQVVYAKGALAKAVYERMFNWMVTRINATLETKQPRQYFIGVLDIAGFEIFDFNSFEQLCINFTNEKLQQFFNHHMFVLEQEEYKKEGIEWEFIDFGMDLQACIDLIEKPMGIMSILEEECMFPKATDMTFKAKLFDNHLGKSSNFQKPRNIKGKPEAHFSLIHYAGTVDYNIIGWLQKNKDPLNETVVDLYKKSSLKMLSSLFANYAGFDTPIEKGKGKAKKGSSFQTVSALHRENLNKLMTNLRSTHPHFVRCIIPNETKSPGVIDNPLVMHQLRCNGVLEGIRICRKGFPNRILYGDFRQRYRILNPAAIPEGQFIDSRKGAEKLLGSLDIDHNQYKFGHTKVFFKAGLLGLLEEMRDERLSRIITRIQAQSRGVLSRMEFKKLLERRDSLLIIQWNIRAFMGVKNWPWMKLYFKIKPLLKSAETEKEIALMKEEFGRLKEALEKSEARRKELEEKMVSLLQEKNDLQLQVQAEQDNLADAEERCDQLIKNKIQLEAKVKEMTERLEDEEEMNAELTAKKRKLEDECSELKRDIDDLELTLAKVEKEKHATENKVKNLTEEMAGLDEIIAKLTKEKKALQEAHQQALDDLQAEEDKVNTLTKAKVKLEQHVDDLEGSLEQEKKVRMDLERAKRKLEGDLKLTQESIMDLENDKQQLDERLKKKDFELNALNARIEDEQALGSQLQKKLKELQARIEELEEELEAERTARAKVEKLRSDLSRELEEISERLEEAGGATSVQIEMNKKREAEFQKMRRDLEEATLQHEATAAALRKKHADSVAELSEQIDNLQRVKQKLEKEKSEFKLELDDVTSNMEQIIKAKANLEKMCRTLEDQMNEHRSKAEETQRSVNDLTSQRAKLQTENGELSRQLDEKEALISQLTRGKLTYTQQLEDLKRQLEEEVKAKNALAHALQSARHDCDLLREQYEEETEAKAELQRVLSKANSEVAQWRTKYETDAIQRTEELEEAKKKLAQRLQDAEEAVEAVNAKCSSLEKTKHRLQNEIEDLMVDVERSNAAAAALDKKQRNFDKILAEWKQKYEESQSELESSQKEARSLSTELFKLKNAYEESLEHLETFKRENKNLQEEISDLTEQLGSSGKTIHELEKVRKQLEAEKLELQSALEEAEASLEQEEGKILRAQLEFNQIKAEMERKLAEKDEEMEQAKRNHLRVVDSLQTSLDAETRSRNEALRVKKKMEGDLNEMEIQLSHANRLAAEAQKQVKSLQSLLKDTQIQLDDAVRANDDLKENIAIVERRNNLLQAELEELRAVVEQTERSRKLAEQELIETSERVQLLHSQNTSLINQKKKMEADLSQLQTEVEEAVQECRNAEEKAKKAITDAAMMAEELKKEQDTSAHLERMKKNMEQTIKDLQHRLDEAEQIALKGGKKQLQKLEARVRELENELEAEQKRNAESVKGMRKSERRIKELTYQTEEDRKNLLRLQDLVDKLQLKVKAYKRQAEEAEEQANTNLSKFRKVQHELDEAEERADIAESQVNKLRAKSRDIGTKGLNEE
T1 sequence (P85100 whole entry partner): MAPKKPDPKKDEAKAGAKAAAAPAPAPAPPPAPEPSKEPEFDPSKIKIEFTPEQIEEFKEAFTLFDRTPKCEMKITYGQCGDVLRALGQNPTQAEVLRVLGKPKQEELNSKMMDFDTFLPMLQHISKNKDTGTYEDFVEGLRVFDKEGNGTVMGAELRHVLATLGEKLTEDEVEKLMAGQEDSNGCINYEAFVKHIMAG
T1 sequence (Q3SZE5 whole entry partner): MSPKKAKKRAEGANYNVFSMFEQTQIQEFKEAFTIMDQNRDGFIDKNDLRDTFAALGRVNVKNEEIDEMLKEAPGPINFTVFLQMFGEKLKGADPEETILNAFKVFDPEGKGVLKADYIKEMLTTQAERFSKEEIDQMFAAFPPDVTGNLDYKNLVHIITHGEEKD
The experiment is described as follows: Inhibition of hydrolysis of ATP by cardiac myosin SII. As to conditions: 100 μM compound. Here is the method:
The purpose of this test was to evaluate the ability of compounds to inhibit the hydrolysis of ATP by cardiac myosin SII. The determination method was as follows: • 1. Solution formulation: • Preformed F-actin filaments (#AKF99-B, Cytoskeleton) were diluted to 1 mg/mL with Reaction buffer (15 mM Tris-HCL. PH7.5+10 mM KCl+0.1 mM EGTA+2 mM MgCl2); • Cardiac Muscle myosin (#MYO3-A, Cytoskeleton) was diluted to 1 mg/mL with Resuspension buffer (15 mM Tris-HCL, PH7.5+0.2M KCl+1 mM MgCl2); • ATP (#BSA04-001, Cytoskeleton) was diluted to 3 mM working solution with 15 mM Tris-HCL (PH=7.5); • 2. Formulation of working solution of compounds: the final compound concentration was 100 μM • 3. Experimental steps: • adding 10 μL of compound working solution+12 μL of Preformed F-actin filaments+3 μL of Cardiac Muscle myosin to the compound wells; • adding 10 μL of reaction buffer containing DMSO+12 μL Preformed F-actin filaments +3 μL Cardiac Muscle myosin to positive control wells; • adding 10 μL of reaction buffer containing DMSO+12 μL Preformed F-actin filaments +3 μL Resuspension buffer to negative control wells; • adding 5 μL of 3 mM ATP working solution to all test wells to start the reaction, gently mixing and incubating at 37° C. for 2 h; • after the reaction was completed, taking 6 μL of reaction liquid, adding 24 μL of reaction buffer for 5-fold dilution, then detecting the content of the product Pi with a phosphate kit (#BK054, Cytoskeleton); • adding a sample to Pi standard wells according to the instructions; • adding 70 μL of CytoPhos Reagent (#BK054, Cytoskeleton) to each well and incubating at room temperature for 10 min before detection. • 4. Detection: • the OD value of each well was detected at 650 nm. The standard curve was fitted according to Pi standard concentration and OD value, and the Pi concentration of each test well was obtained. Inhibition (%)=(positive control well−test well)/positive control well*100%.

A further experiment has as its target T2, smooth muscle myosin S1 (Gallus gallus, UniProt P10587).
T2 construct: purchased Cytoskeleton #CS-MYS05
Kind of experiment: Inhibition of hydrolysis of ATP by smooth muscle myosin S1 fragments. Conditions: 100 μM compound. The method, then: The purpose of this test was to evaluate the ability of compounds to inhibit the hydrolysis of ATP by smooth muscle myosin Si fragments. The determination method was as follows: • 1. Solution formulation • F-actin polymer: Cardiac Actin powder (#CS-AD99, Cytoskeleton) was dissolved in a buffer (5 mM Pipes-KOH solution, PH=7.0, containing 100 μM ATP and 500 μM DTT) to form a 2 mg/mL solution and the solution was left at room temperature for 30 min; then 2 mM MgCl2 and 2 mM EGTA were added and the obtained system was left at room temperature for 40 min; • Smooth muscle SI fragment (#CS-MYS05, Cytoskeleton) was diluted with a pre-cooled PM12 buffer containing 1 mM DTT (12 mM Pipes-KOH solution, PH=7.0, containing 2 mM MgCl2) to form a 0.7 mg/mL solution; • ATP (#BSA04-001, Cytoskeleton) was diluted to 5 mM working solution with 15 mM Tris-HCL (PH=7.5); • 2. […] Experimental steps: • adding 10 μL of compound working solution+6 μL of F-actin polymer+4 μL of Smooth muscle Si fragment solution to the compound wells; • adding 10 μL of PM12 buffer containing DMSO+6 μL of F-actin polymer+4 μL of Smooth muscle S1 fragment solution to positive control wells; • adding 10 μL of PM12 buffer containing DMSO+6 μL of F-actin polymer+4 μL of PM12 buffer to negative control wells; • adding […] of 5 mM ATP working solution to all test wells to start the reaction, gently mixing and incubating at 37° C. for 20 min; • after the reaction was completed, taking 6 μLL of reaction liquid, adding 24 μL of PM12 buffer for 5-fold dilution, then detecting the content of the product Pi with a phosphate kit (#BK054, Cytoskeleton); • adding a standard according to the instructions, adding 70 μL of CytoPhos Reagent (#BK054, Cytoskeleton) to all wells and incubating at room temperature for 10 min before detection. • 4. Detection: • the OD value of each well was detected at 650 nm. The standard curve was fitted according to Pi standard concentration and OD value, and the Pi concentration of each test well was obtained. Inhibition (%)=(positive control well−test well)/positive control well*100%.

[2] abbreviates: inhibition of hydrolysis of ATP, class symbols, read-out: Rabbit skeletal muscle myosin (IC50).
Where [3] appears, read: read-out: IC50 for inhibition of hydrolysis of ATP by rabbit skeletal muscle myosin.

T2 sequence (P10587 84-789 limits assumed): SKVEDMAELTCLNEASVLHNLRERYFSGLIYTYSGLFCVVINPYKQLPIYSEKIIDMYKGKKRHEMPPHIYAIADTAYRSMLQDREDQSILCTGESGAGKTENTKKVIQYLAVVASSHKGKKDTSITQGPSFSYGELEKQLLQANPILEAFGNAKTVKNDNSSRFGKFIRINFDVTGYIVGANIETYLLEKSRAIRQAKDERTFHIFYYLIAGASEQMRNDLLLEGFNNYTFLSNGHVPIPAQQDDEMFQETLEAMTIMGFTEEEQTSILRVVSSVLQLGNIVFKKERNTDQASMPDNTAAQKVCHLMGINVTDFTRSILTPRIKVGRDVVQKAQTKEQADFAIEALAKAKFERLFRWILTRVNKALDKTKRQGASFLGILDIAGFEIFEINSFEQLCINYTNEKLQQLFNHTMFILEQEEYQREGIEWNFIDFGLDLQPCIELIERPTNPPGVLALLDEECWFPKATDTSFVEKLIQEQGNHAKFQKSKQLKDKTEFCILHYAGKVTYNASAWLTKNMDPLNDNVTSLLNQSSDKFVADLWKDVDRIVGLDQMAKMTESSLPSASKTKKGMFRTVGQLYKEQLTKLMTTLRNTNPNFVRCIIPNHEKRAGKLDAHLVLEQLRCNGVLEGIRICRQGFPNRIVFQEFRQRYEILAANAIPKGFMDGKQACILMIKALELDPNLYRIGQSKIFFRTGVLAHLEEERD
T2 sequence (P02607 whole entry partner): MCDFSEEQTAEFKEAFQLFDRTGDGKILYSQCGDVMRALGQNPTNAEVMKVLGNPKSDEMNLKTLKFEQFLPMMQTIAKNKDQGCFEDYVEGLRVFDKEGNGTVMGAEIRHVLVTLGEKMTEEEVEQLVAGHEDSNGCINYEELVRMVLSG

For the molecule `CC(c1ccc2c(c1)CC2)n1nc(-c2cnc(OCC(F)(F)F)nc2)ccc1=O` (single isomer, unassigned) [Compound 64], the half-inhibitory concentration (IC50) in experiment [1] (setting [2]) is < 2.5 µM.
Same read-out and setting: next, `CC(c1ccc2c(c1)CC2)n1nc(-c2cnc(OCC(F)(F)F)nc2)ccc1=O` (stereo not shown) [Compound 61]: 2.5 to 20 µM; `O=c1ccc(-c2cnc(OCCC(F)(F)F)nc2)nn1Cc1ccc2c(c1)CC2` [Compound 65]: < 2.5 µM; `O=c1ccc(-c2cnc(OCCF)nc2)nn1Cc1ccc2c(c1)CC2` [Compound 66]: < 2.5 µM.
Consider `O=c1ccc(-c2cnc(OCCC(F)F)nc2)nn1Cc1ccc2c(c1)CC2` [Compound 68], for which the IC50 was < 2.5 µM in experiment [1] (setting [2]) and 0.1 µM in experiment [1] (setting [3]).
As for `O=c1ccc(-c2cnc(OCCCF)nc2)nn1Cc1ccc2c(c1)CC2` [Compound 69], the inhibition at 100 µM against cardiac myosin SII was found to be 19%. Moreover, the IC50 in experiment [1] (setting [2]) is < 2.5 µM; in experiment [1] (setting [3]) it was 0.1 µM.
As for `O=c1ccc(-c2cnc(OCCCCl)nc2)nn1Cc1ccc2c(c1)CC2` [Compound 70], the inhibition at 100 µM at cardiac myosin SII was 18%. Moreover, the IC50 in experiment [1] (setting [2]) was < 2.5 µM.
With `O=c1ccc(-c2cnc(OCCF)nc2)nn1Cc1ccc2c(c1)CCC2` [Compound 75], the results for the 50% inhibitory concentration (IC50) in experiment [1] (setting [2]) and in experiment [1] (setting [3]) were < 2.5 µM and 0.5 µM, respectively.
As for `O=c1ccc(-c2cnc(OCCC(F)F)nc2)nn1Cc1ccc2c(c1)CCC2` [Compound 76], the IC50 in experiment [1] (setting [2]) is < 2.5 µM.
Consider `O=c1ccc(-c2cnc(OCCCCl)nc2)nn1Cc1ccc2c(c1)CCC2` [Compound 77], for which the IC50 in experiment [1] (setting [2]) was < 2.5 µM.
The same measure, in the same setting: next, `O=c1ccc(-c2cnc(C3CC3)nc2)nn1Cc1ccc2c(c1)CCC2` [Compound 78]: < 2.5 µM; `O=c1ccc(-c2cnc(OCC(F)(F)F)nc2)nn1Cc1ccc2c(c1)CCC2(F)F` [Compound 79]: 2.5 to 20 µM.
As to `O=c1ccc(-c2cnc(OC3CC3)nc2)nn1Cc1ccc2c(c1)CC2` [Compound 82], the values for the IC50 in experiment [1] (setting [2]) and in experiment [1] (setting [3]) were < 2.5 µM and 0.2 µM, respectively.
`O=c1ccc(-c2cnc(OC3CC(F)(F)C3)nc2)nn1Cc1ccc2c(c1)CC2` [Compound 83]: the IC50 in experiment [1] (setting [2]) was < 2.5 µM.
Consider `O=c1ccc(-c2cnc(OC3CC(F)(F)C3)nc2)nn1Cc1ccc2c(c1)CCC2` [Compound 85], for which, in experiment [1] (setting [2]), the IC50 lay in the range of 2.5 to 20 µM.
Take `O=c1ccc(-c2cnc(OCC3CC3)nc2)nn1Cc1ccc2c(c1)CC2` [Compound 86]: the IC50 was < 2.5 µM in experiment [1] (setting [2]) and 0.2 µM in experiment [1] (setting [3]).
The like results for `O=c1ccc(-c2cnc(OCC3CC3(F)F)nc2)nn1Cc1ccc2c(c1)CC2` (stereo not shown) [Compound 87] were, in that order, < 2.5 µM and 0.3 µM.
The like results for `O=c1ccc(-c2cnc(OC3COC3)nc2)nn1Cc1ccc2c(c1)CC2` [Compound 94] were, in that order, < 2.5 µM and 0.2 µM.
The like results for `O=c1ccc(-c2cnc(OCC(F)(F)F)nc2)nn1Cc1ccc2c(c1F)CCC2` [Compound 98] were, in that order, < 2.5 µM and 0.2 µM.
`O=c1ccc(-c2cnc(OCC(F)(F)F)nc2)nn1Cc1cc2c(cc1F)CCC2` [Compound 99]: the concentration for half-maximal inhibition (IC50) in experiment [1] (setting [2]) was < 2.5 µM; in experiment [1] (setting [3]), 0.8 µM.
On the same counts, the results for `O=c1ccc(-c2cnc(OCC(F)F)nc2)nn1Cc1ccc2c(c1)C(F)(F)CC2` [Compound 100] are < 2.5 µM and 0.1 µM.
The like results for `O=c1ccc(-c2cnc(Oc3cncc(F)c3)nc2)nn1Cc1ccc2c(c1)CC2` [Compound 101] were, in that order, < 2.5 µM and 0.1 µM.
The like results for `O=c1ccc(-c2cnc(O[C@@H]3CCOC3)nc2)nn1Cc1ccc2c(c1)CC2` [Compound 107] were, in that order, < 2.5 µM and 0.2 µM.
For `O=c1cc2c(nn1Cc1ccc3c(c1)CC3)-c1cnc(OC3CCOC3)nc1CC2` (stereo not shown) [Compound 122], in experiment [1] (setting [2]), the 50% inhibitory concentration (IC50) was in the range of 2.5 to 20 µM.
On to `O=c1ccc(-c2cnc(OCC(F)(F)F)nc2)nn1Cc1ccc2c(c1)C=CC2` [Compound 137], for which, at smooth muscle myosin S1, the inhibition at 100 µM turned out to be 11%. In addition, the IC50 in experiment [1] (setting [2]) was < 2.5 µM; in experiment [1] (setting [3]) it was 0.3 µM.
Take `O=c1ccc(-c2cnc(OCC(F)(F)F)nc2)nn1Cc1ccc2c(c1)CC=C2` [Compound 138]: the figures for the 50% inhibitory concentration (IC50) in experiment [1] (setting [2]) and in experiment [1] (setting [3]) were < 2.5 µM and 0.2 µM, respectively.
For `O=C1CCc2ccc(Cn3nc(-c4cnc(Oc5ccnc(C(F)(F)F)c5)nc4)ccc3=O)cc21` [Compound 143], the IC50 in experiment [1] (setting [2]) was 2.5 to 20 µM.
The same measure, in the same setting: next, `O=C1CCc2ccc(Cn3nc(-c4cnc(Oc5cccc(C(F)(F)F)n5)nc4)ccc3=O)cc21` [Compound 144]: 2.5 to 20 µM; `O=C1CCc2ccc(Cn3nc(-c4cnc(Oc5ccc(F)cn5)nc4)ccc3=O)cc21` [Compound 146]: 2.5 to 20 µM.
As for `O=C1CCc2ccc(Cn3nc(-c4cnc(OCC(F)(F)F)nc4)ccc3=O)c(F)c21` [Compound 152], at smooth muscle myosin S1, the inhibition at 100 µM was -5%. Besides, the IC50 in experiment [1] (setting [2]) is < 2.5 µM.
In the case of `O=C1CCc2ccc(Cn3nc4c(cc3=O)CCc3nc(OCC(F)(F)F)ncc3-4)cc21` [Compound 154], the IC50 in experiment [1] (setting [2]) was in the range of 2.5 to 20 µM.
On the same count and under the same terms, next, `O=C1CCCc2ccc(Cn3nc(-c4cnc(OCC(F)(F)F)nc4)ccc3=O)cc21` [Compound 168]: 2.5 to 20 µM.
With `O=C1CCc2c(Cl)cc(Cn3nc(-c4cnc(Oc5cncc(F)c5)nc4)ccc3=O)cc21` [Compound 173], the IC50 in experiment [1] (setting [2]) was < 2.5 µM; in experiment [1] (setting [3]), 0.53 µM.
Regarding `O=C1CCc2c(Cl)cc(Cn3nc(-c4cnc(Oc5cccc(F)n5)nc4)ccc3=O)cc21` [Compound 174], the half-maximal inhibitory concentration (IC50) in experiment [1] (setting [2]) was < 2.5 µM.
As to `O=C1CCc2c(Cl)cc(Cn3nc(-c4cnc(Oc5cncc(Cl)c5)nc4)ccc3=O)cc21` [Compound 175], the IC50 in experiment [1] (setting [2]) was < 2.5 µM; in experiment [1] (setting [3]), 0.53 µM.
As for `O=C1CCc2c1cc(Cn1nc(-c3cnc(OCC(F)(F)F)nc3)ccc1=O)cc2C1CC1` [Compound 177], the IC50 in experiment [1] (setting [2]) fell in the range of 2.5 to 20 µM.
As for `O=c1ccc(-c2cnc(OCC(F)F)nc2)nn1Cc1ccc2c(c1)CC2` [compound 60], the IC50 in experiment [1] (setting [2]) is < 2.5 µM; in experiment [1] (setting [3]) it was 0.1 µM.

Usually IC50 stands for the concentration at which inhibition is half-maximal. One may read the inhibition as the relative decrease from the control value, in per cent.
